Measurements as given in PMC6151531, “Development of a Non-Hydroxamate Dual Matrix Metalloproteinase (MMP)-7/-13 Inhibitor” (Molecules : A Journal of Synthetic Chemistry and Natural …, 2017).
Where “and” joins values, the source holds several entries; their conditions need not be identical. Identical values can stand only once. Like-named read-outs stand apart in the source and are kept apart here.

Key:
[1] = target: T1, MMP-7 (Homo sapiens, UniProt P09237); settings: cited from earlier work
T1 sequence (P09237 95-267): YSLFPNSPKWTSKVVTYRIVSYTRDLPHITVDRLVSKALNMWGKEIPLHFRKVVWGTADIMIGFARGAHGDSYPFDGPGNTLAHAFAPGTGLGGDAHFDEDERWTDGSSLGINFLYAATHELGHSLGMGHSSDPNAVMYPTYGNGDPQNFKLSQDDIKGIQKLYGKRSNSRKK

[2] = target: MMP-13 (Homo sapiens, UniProt P45452); experiment: MMP-13 FRET peptide enzyme assay (single dose 10 μM and IC50); type: biochemical; settings: for activity at 10 µM: remaining enzyme activity at 10 μM inhibitor concentration; for activity at 10 µM / IC50: measured in duplicate
Procedure: (§1) The buffer consisted of 50 mM HEPES at pH 7.5 with 10 mM CaCl2 and 0.01% Brij-35. 0.1 mg/mL BSA (Sigma Aldrich, St. Louis, MO, USA) was added before use. As a control inhibitor GM6001 (ilomastat, Enzo Life Sciences, Farmingdale, NY, USA) was used. For selectivity examinations single dose duplicate assays were performed in the same manner as described above on the MMP-1, -2, -3, -8, -9, -12 and -14 isoforms.

[3] = target: T1, MMP-7; settings: 10 µM inhibitor concentration; cited from earlier work
[4] = target: T2, MMP-1 (Homo sapiens, UniProt P03956); settings: 10 µM inhibitor concentration; cited from earlier work
T2 sequence (P03956 100-469): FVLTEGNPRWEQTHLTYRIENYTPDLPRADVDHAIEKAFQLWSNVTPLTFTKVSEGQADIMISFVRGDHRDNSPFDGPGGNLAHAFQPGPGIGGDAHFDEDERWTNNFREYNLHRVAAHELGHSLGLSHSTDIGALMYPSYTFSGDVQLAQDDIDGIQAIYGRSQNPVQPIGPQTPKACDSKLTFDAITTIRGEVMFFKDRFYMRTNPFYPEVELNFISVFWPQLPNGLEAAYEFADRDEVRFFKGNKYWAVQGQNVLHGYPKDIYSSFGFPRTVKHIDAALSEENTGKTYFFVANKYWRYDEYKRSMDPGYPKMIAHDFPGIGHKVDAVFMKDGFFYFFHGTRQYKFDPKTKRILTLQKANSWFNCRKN

[5] = target: T3, MMP-2 (Homo sapiens, UniProt P08253); settings: 10 µM inhibitor concentration; cited from earlier work
T3 sequence (P08253 110-660): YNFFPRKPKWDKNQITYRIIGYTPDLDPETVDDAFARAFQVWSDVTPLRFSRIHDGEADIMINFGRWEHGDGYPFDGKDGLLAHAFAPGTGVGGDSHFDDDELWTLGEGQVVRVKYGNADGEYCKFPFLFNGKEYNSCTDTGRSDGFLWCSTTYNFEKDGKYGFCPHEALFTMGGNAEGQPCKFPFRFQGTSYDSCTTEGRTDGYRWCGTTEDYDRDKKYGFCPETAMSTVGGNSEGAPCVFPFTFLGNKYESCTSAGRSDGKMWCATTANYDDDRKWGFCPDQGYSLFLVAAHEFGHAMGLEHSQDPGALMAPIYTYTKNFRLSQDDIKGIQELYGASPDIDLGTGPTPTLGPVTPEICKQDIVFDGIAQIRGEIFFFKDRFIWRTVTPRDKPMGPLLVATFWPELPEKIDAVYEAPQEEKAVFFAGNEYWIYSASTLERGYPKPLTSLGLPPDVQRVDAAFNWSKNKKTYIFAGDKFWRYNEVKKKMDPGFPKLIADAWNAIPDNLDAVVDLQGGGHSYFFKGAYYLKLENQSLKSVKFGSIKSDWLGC

[6] = target: T4, MMP-3 (Homo sapiens, UniProt P08254); settings: 10 µM inhibitor concentration; cited from earlier work
[7] = target: T5, MMP-8 (Homo sapiens, UniProt P22894); settings: 10 µM inhibitor concentration; cited from earlier work
[8] = target: T6, MMP-9 (Homo sapiens, UniProt P14780); settings: 10 µM inhibitor concentration; cited from earlier work
[9] = target: T7, MMP-12 (Homo sapiens, UniProt P39900); settings: 10 µM inhibitor concentration; cited from earlier work
[10] = target: T8, MMP-14 (Homo sapiens, UniProt P50281); settings: 10 µM inhibitor concentration; cited from earlier work
[11] = target: T1, MMP-7; experiment: MMP-7 FRET peptide enzyme assay (single dose 10 μM and IC50); settings: for IC50: IC50 MMP-7, measured in duplicate; for activity at 10 µM: read-out: % Activity MMP-7
Procedure: as §1

[12] = target: T2, MMP-1; experiment: MMP-1 single dose selectivity assay; settings: read-out: Remaining enzymatic activity MMP-1
[13] = target: T3, MMP-2; experiment: MMP-2 single dose selectivity assay; settings: read-out: Remaining enzymatic activity MMP-2
[14] = target: T4, MMP-3; experiment: MMP-3 single dose selectivity assay; settings: read-out: Remaining enzymatic activity MMP-3
[15] = target: T5, MMP-8; experiment: MMP-8 single dose selectivity assay; settings: read-out: Remaining enzymatic activity MMP-8
Procedure: (§2) The buffer consisted of 50 mM HEPES at pH 7.5 with 10 mM CaCl2 and 0.01% Brij-35. 0.1 mg/mL BSA (Sigma Aldrich, St. Louis, MO, USA) was added before use. As a control inhibitor GM6001 (ilomastat, Enzo Life Sciences, Farmingdale, NY, USA) was used.

[16] = target: T6, MMP-9; experiment: MMP-9 single dose selectivity assay; settings: read-out: Remaining enzymatic activity MMP-9
Procedure: as §2

[17] = target: T7, MMP-12; experiment: MMP-12 single dose selectivity assay; settings: read-out: Remaining enzymatic activity MMP-12
Procedure: as §2

[18] = target: T8, MMP-14; experiment: MMP-14 single dose selectivity assay; settings: read-out: Remaining enzymatic activity MMP-14
Procedure: as §2

T4 sequence (P08254 100-477): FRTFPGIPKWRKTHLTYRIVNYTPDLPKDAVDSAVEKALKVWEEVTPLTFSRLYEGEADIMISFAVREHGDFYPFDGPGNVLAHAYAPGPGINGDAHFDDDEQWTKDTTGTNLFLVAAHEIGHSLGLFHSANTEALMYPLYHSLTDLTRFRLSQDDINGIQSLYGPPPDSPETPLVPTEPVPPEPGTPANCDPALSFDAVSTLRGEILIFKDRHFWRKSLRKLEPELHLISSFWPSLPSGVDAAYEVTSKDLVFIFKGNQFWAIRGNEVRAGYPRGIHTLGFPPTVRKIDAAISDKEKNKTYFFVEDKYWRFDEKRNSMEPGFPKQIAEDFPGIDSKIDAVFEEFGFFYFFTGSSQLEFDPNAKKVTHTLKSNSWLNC
T7 sequence (P39900 106-470): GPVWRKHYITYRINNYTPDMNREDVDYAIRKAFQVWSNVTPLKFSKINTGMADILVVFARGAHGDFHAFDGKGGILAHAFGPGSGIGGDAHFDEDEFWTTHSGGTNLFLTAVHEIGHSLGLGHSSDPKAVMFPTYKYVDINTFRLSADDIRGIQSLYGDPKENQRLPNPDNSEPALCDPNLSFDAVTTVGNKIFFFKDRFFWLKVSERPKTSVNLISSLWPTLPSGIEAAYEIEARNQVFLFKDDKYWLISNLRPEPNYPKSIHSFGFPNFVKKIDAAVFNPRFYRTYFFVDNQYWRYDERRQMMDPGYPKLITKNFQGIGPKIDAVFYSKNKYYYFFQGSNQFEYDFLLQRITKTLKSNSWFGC
T5 sequence (P22894 101-467): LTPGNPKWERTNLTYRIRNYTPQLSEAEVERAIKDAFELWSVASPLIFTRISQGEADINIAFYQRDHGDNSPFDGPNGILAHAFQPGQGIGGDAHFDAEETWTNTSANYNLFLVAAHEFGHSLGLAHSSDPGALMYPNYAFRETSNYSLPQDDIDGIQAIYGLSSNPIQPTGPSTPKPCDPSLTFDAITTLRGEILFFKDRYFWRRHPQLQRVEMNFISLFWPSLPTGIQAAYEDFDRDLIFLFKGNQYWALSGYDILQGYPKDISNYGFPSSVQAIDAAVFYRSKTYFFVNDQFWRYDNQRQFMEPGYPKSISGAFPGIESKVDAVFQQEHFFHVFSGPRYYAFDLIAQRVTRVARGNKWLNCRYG
T6 sequence (P14780 94-707): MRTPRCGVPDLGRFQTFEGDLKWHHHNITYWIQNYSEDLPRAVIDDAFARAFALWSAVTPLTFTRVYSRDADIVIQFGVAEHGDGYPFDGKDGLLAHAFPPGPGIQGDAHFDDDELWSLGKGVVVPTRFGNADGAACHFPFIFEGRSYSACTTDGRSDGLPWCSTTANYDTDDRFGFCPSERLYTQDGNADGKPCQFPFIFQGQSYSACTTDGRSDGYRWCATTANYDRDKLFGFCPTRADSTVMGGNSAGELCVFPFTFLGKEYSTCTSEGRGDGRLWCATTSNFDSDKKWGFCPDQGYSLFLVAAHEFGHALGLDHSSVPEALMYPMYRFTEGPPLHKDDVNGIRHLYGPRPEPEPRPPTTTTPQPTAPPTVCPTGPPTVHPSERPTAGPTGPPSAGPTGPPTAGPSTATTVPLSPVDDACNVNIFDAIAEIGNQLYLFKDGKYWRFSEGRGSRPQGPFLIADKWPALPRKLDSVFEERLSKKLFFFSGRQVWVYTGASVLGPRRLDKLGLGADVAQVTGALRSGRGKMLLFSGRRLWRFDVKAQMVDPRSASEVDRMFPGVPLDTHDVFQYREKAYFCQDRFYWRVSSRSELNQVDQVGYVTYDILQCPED

For O=C(O)C(Cc1c[nH]c2ccccc12)NS(=O)(=O)c1ccc(Cl)c(C(F)(F)F)c1 (stereo not shown) [Compound 3], the “selectivity over MMP-1” value ([1]; MMP-7 over MMP-1) is listed as 10 fold, the “selectivity over MMP-14” value ([1]; MMP-7 over MMP-14) is listed as 10 fold and the IC50 [1] is listed as 10 µM.
For O=C(O)CCCCOc1ccc(CC(=O)Nc2ccc3c(c2)C(=O)N(Cc2ccc(F)cc2)C3=O)cc1 [Compound 5, 5-{4-[({2-[(4-Fluorophenyl)methyl]-1,3-dioxo-2,3-dihydro-1H-isoindol-5-yl}carbamoyl)methyl]-phenoxy}pentanoic acid], the “selectivity for MMP-13 over MMP-7” value ([2]; from IC50-values) is given as > 2600 fold, the “Remaining enzymatic activity MMP-7” value [3] is given as 68% and the “Remaining enzymatic activity MMP-1” value [4] is given as 100%. For the same compound, the “Remaining enzymatic activity MMP-2” value [5] was 100%, the “Remaining enzymatic activity MMP-3” value [6] was 100% and the “Remaining enzymatic activity MMP-8” value [7] was 97%. For the same compound, the “Remaining enzymatic activity MMP-9” value [8] was 100%, the “Remaining enzymatic activity MMP-12” value [9] was 91% and the “Remaining enzymatic activity MMP-14” value [10] was 100%. For the same compound, the IC50 [11] was 15.7 µM and 15.6 µM and the activity at 10 µM [11] was 67.5 ± 2.6%.
In the case of CN1C(=O)c2ccc(NC(=O)Cc3ccc(OCCCCC(=O)O)cc3)cc2C1=O [Compound 14a, 5-(4-{[(2-Methyl-1,3-dioxo-2,3-dihydro-1H-isoindol-5-yl)carbamoyl]methyl}phenoxy)pentanoic acid], the activity at 10 µM [2] is reported as 23.7 ± 3.3%, the “inhibition of MMP-7 (in words)” value ([11]; discussion of structure activity relationship) is reported as “total loss of inhibition” and the activity at 10 µM [11] is reported as 100 ± 4.4%.
With O=C(O)COc1ccc(CC(=O)Nc2ccc3c(c2)C(=O)N(Cc2ccccc2)C3=O)cc1 [Compound 14b, 2-(4-{[(2-Benzyl-1,3-dioxo-2,3-dihydro-1H-isoindol-5-yl)carbamoyl]methyl}phenoxy)acetic acid] the activity at 10 µM [2] was 58.7 ± 2.7% and the activity at 10 µM [11] was 89.9 ± 10%.
With O=C(O)CCOc1ccc(CC(=O)Nc2ccc3c(c2)C(=O)N(Cc2ccccc2)C3=O)cc1 [Compound 14c, 3-(4-{[(2-Benzyl-1,3-dioxo-2,3-dihydro-1H-isoindol-5-yl)carbamoyl]methyl}phenoxy)propanoic acid] the activity at 10 µM [2] was 35.8 ± 5.1% and the activity at 10 µM [11] was 93.1 ± 1.7%.
O=C(O)CCCOc1ccc(CC(=O)Nc2ccc3c(c2)C(=O)N(Cc2ccccc2)C3=O)cc1 [Compound 14d, 4-(4-{[(2-Benzyl-1,3-dioxo-2,3-dihydro-1H-isoindol-5-yl)carbamoyl]methyl}phenoxy)butanoic acid] gave an activity at 10 µM [2] of 2.6 ± 1.3% and an activity at 10 µM [11] of 91.3 ± 0.4%.
With O=C(O)CCCCOc1ccc(CC(=O)Nc2ccc3c(c2)C(=O)N(Cc2ccccc2)C3=O)cc1 [Compound 14e, 5-(4-{[(2-Benzyl-1,3-dioxo-2,3-dihydro-1H-isoindol-5-yl)carbamoyl]methyl}phenoxy)pentanoic acid] the activity at 10 µM [11] was 93.2 ± 3.3%.
With O=C(O)CCCCCOc1ccc(CC(=O)Nc2ccc3c(c2)C(=O)N(Cc2ccccc2)C3=O)cc1 [Compound 14f, 6-(4-{[(2-Benzyl-1,3-dioxo-2,3-dihydro-1H-isoindol-5-yl)carbamoyl]methyl}phenoxy)hexanoic acid] the activity at 10 µM [2] was 2.5 ± 0.1% and the activity at 10 µM [11] was 59.4 ± 0.2%.
For O=C(O)CCCCCCOc1ccc(CC(=O)Nc2ccc3c(c2)C(=O)N(Cc2ccccc2)C3=O)cc1 [Compound 14g, 7-(4-{[(2-Benzyl-1,3-dioxo-2,3-dihydro-1H-isoindol-5-yl)carbamoyl]methyl}phenoxy)heptanoic acid], the IC50 [2] was 0.15 ± 0.031 µM, the activity at 10 µM [2] was 1 ± 0.1% and the activity at 10 µM [11] was 53.8 ± 0.8%.
Compound O=C(O)CCCCCCCOc1ccc(CC(=O)Nc2ccc3c(c2)C(=O)N(Cc2ccccc2)C3=O)cc1 [Compound 14h, 8-(4-{[(2-Benzyl-1,3-dioxo-2,3-dihydro-1H-isoindol-5-yl)carbamoyl]methyl}phenoxy)octanoic acid] has an IC50 [2] of 1.67 ± 0.429 µM, an activity at 10 µM [2] of 16 ± 0.14% and an IC50 [11] of 3.18 ± 0.249 µM. The activity at 10 µM [11] was 25.9 ± 0.5%.
In the case of O=C(O)CCCCCCCCOc1ccc(CC(=O)Nc2ccc3c(c2)C(=O)N(Cc2ccccc2)C3=O)cc1 [Compound 14i, 9-(4-{[(2-Benzyl-1,3-dioxo-2,3-dihydro-1H-isoindol-5-yl)carbamoyl]methyl}phenoxy)nonanoic acid], the IC50 [2] is reported as 1.2 µM and 1.25 µM, the remaining activity at 10 µM [12] is reported as 100% and the remaining activity at 10 µM [13] is reported as 98%. The remaining activity at 10 µM [14] was 73%, the remaining activity at 10 µM [15] was 80% and the remaining activity at 10 µM [16] was 87%. The remaining activity at 10 µM [17] was 97%, the remaining activity at 10 µM [18] was 91% and the IC50 [11] was 2.2 µM and 2.25 µM.
Compound O=C(O)CCCCCCCCCOc1ccc(CC(=O)Nc2ccc3c(c2)C(=O)N(Cc2ccccc2)C3=O)cc1 [Compound 14j, 10-(4-{[(2-Benzyl-1,3-dioxo-2,3-dihydro-1H-isoindol-5-yl)carbamoyl]methyl}phenoxy)decanoic acid] has an IC50 [2] of 7.12 ± 0.94 µM and an IC50 [11] of 6.2 ± 1.85 µM.
In the case of O=C(O)CCOc1ccc(CC(=O)Nc2ccc3c(c2)C(=O)N(Cc2ccc(F)cc2)C3=O)cc1 [Compound 14k, 3-{4-[({2-[(4-Fluorophenyl)methyl]-1,3-dioxo-2,3-dihydro-1H-isoindol-5-yl}carbamoyl)methyl]-phenoxy}propanoic acid], the activity at 10 µM [2] is reported as 37 ± 0.2% and the activity at 10 µM [11] is reported as 98 ± 7.3%.
Compound O=C(O)CCCOc1ccc(CC(=O)Nc2ccc3c(c2)C(=O)N(Cc2ccc(F)cc2)C3=O)cc1 [Compound 14l, 4-{4-[({2-[(4-Fluorophenyl)methyl]-1,3-dioxo-2,3-dihydro-1H-isoindol-5-yl}carbamoyl)methyl]-phenoxy}butanoic acid] has an IC50 [2] of 0.361 ± 0.052 µM, an activity at 10 µM [2] of 3.6 ± 1.1% and an activity at 10 µM [11] of 85.1 ± 2.2%.
O=C(O)CCCCCOc1ccc(CC(=O)Nc2ccc3c(c2)C(=O)N(Cc2ccc(F)cc2)C3=O)cc1 [Compound 14m, 6-{4-[({2-[(4-Fluorophenyl)methyl]-1,3-dioxo-2,3-dihydro-1H-isoindol-5-yl}carbamoyl)methyl]-phenoxy}hexanoic acid] gave an activity at 10 µM [2] of 1.2 ± 0.1% and an activity at 10 µM [11] of 69.2 ± 0.1%.
Work on O=C(O)CCCCCCOc1ccc(CC(=O)Nc2ccc3c(c2)C(=O)N(Cc2ccc(F)cc2)C3=O)cc1 [Compound 14n, 7-{4-[({2-[(4-Fluorophenyl)methyl]-1,3-dioxo-2,3-dihydro-1H-isoindol-5-yl}carbamoyl)methyl]-phenoxy}heptanoic acid] yielded an activity at 10 µM [2] of 1.9 ± 0.5% and an activity at 10 µM [11] of 47.5 ± 5.1%.
O=C(O)CCCCCCCOc1ccc(CC(=O)Nc2ccc3c(c2)C(=O)N(Cc2ccc(F)cc2)C3=O)cc1 [Compound 14o, 8-{4-[({2-[(4-Fluorophenyl)methyl]-1,3-dioxo-2,3-dihydro-1H-isoindol-5-yl}carbamoyl)methyl]-phenoxy}octanoic acid] showed an activity at 10 µM [2] of 34.6 ± 2.3% and an activity at 10 µM [11] of 64.5 ± 3.7%.
